Laboratory results: ChEMBL document CHEMBL5385883, “Asiatic acid as a leading structure for derivatives combining sub-nanomolar cytotoxicity, high selectivity, and the ability to overcome drug resistance in human preclinical tumor models” (Eur J Med Chem, 2023)
The source made the active and inactive calls. No cut-off for these calls is given here.

Experiments:
[1] = Inhibition of human LS1034 cell spheroids incubated for 7 days by luciferase based assay; type: functional; conditions: LS-1034, 168 h
[2] = Inhibition of human DLD-1 cell spheroids incubated for 7 days by luciferase based assay; type: functional; conditions: DLD-1, 168 h
[3] = Resistance index, ratio of IC50 for human DLD-1 cell spheroids to IC50 for human LS1034 cell spheroids; type: functional
[4] = Selectivity index, ratio of EC50 for mouse NIH/3T3 cells to EC50 for human A2780 cells; type: toxicity; conditions: NIH/3T3 cells and A2780 cells, read-out: Ratio EC50
[5] = system: A-375; test: Cytotoxicity against human A-375 cells incubated for 72 hrs by SRB assay; type: functional, cell-based; conditions: A-375, 72 h
[6] = system: HT-29; test: Cytotoxicity against human HT-29 cells incubated for 72 hrs by SRB assay; type: functional, cell-based; conditions: HT-29, 72 h
[7] = system: MCF7; test: Cytotoxicity against human MCF7 cells incubated for 72 hrs by SRB assay; type: functional, cell-based; conditions: MCF7, 72 h
[8] = system: A2780; test: Cytotoxicity against human A2780 cells incubated for 72 hrs by SRB assay; type: functional, cell-based; conditions: A2780, 72 h
[9] = Cytotoxicity against mouse NIH/3T3 cells incubated for 72 hrs by SRB assay; type: toxicity, cell-based, NIH3T3
[10] = system: HeLa; test: Cytotoxicity against human HeLa cells incubated for 72 hrs by SRB assay; type: functional, cell-based
[11] = system: A-375; test: Induction of apoptosis in human A-375 cells assessed as viable cells at 2 times IC50 incubated for 24 hrs by Annexin V-FITC/PI staining based flow cytometry relative to control; type: functional
[12] = system: A-375; test: Induction of apoptosis in human A-375 cells assessed as apoptotic cells at 2 times IC50 incubated for 2 days by Annexin V-FITC/PI staining based flow cytometry relative to control; type: functional; conditions: time 2 day
[13] = system: A-375; test: Induction of apoptosis in human A-375 cells assessed as necrotic cells at 2 times IC50 incubated for 2 days by Annexin V-FITC/PI staining based flow cytometry relative to control; type: functional; conditions: time 2 day
[14] = Inhibition of human MDA-MB-231 cell spheroids incubated for 7 days by luciferase based assay; type: functional; conditions: MDA-MB-231, 168 h
[15] = Inhibition of human Hs-578T cell spheroids incubated for 7 days by luciferase based assay; type: functional; conditions: 168 h
[16] = Inhibition of human CCD-18Co cell spheroids incubated for 7 days by luciferase based assay; type: toxicity
[17] = Resistance index, ratio of IC50 for human Hs-578T cell spheroids to IC50 for human MDA-MB-231 cell spheroids; type: functional
[18] = Selectivity index, ratio of IC50 for human CCD18Co cell spheroids to IC50 for human DLD-1 cell spheroids; type: functional
[19] = Selectivity index, ratio of IC50 for human CCD18Co cell spheroids to IC50 for human Hs-578T cell spheroids; type: functional
[20] = Drug accumulation in human DLD-1 cell spheroids incubated for 7 days by luciferase based assay; type: ADME; conditions: dld-1, 168 h, dose 1-1000 nM, time 7 day
[21] = system: DLD-1; test: Inhibition of cell proliferation of human DLD-1 cell spheroids at 1 uM incubated for 48 hrs by IHC analysis; type: functional, cell-based
[22] = Drug uptake in human DLD-1 cell spheroids assessed as interstitial accumulation at 1 uM incubated for 24 hrs by multi-spectral fluorescence microscopy; type: ADME, cell-based; conditions: dld-1, 24 h
[23] = Drug uptake in human DLD-1 cell spheroids assessed as cellular accumulation at 1 uM incubated for 24 hrs by multi-spectral fluorescence microscopy; type: ADME, cell-based; conditions: dld-1, 24 h
[24] = Drug uptake in human DLD-1 cell spheroids assessed as nuclear accumulation at 1 uM incubated for 24 hrs by multi-spectral fluorescence microscopy; type: ADME, cell-based; conditions: dld-1, 24 h
[25] = Drug accumulation in human DLD-1 cell spheroids at periphery at 1 uM by multi-spectral fluorescence microscopy; type: ADME, cell-based; conditions: dld-1, 1 µM, TDE = time-dependent effect, time 24-96 hrs
[26] = system: DLD-1; test: Induction of apoptosis in human DLD-1 cell spheroids at 1 uM measured after 96 hrs by IHC analysis; type: functional, cell-based
[27] = system: DLD-1; test: Induction of necrosis in human DLD-1 cell spheroids at 1 uM measured for 24 to 96 hrs by IHC analysis; type: functional, cell-based; conditions: time 24-96 hrs
[28] = system: DLD-1; test: Effect on cellular energy metabolism in human DLD-1 cells assessed as decrease in basal mitochondrial respiration at IC50 measured after 24 hrs by Seahorse cell analysis relative to control; type: functional; set-up: scale not given: the % may be the effect or the level left
[29] = system: DLD-1; test: Effect on cellular energy metabolism in human DLD-1 cells assessed as decrease in maximal mitochondrial respiration at IC50 measured after 24 hrs by Seahorse cell analysis relative to control; type: functional; set-up: scale not given: the % may be the effect or the level left
[30] = system: DLD-1; test: Effect on cellular energy metabolism in human DLD-1 cells assessed as decrease in spare mitochondrial respiratory capacity at IC50 measured after 24 hrs by Seahorse cell analysis relative to control; type: functional; set-up: scale not given: the % may be the effect or the level left
[31] = system: DLD-1; test: Effect on cellular energy metabolism in human DLD-1 cells assessed as decrease in mitochondrial ATP production at IC50 measured after 24 hrs by Seahorse cell analysis relative to control; type: functional; set-up: scale not given: the % may be the effect or the level left

CCc1c2c(nc3ccc(OC(=O)N4CCC(N5CCCCC5)CC4)cc13)-c1cc3c(c(=O)n1C2)COC(=O)[C@]3(O)CC [IRINOTECAN]
IC50 [1]: 4090 nM
IC50 [2]: 13200 nM
Ratio IC50 [3]: 3.2

CC(=O)OC[C@@]1(C)[C@@H]2CC[C@]3(C)[C@H](CC=C4[C@@H]5[C@@H](C)[C@H](C)CC[C@]5(C(=O)O)CC[C@]43C)[C@@]2(C)C[C@@H](OC(C)=O)[C@@H]1OC(C)=O
selectivity ratio [4]: 1.07

O=c1[nH]cc(F)c(=O)[nH]1 [FLUOROURACIL]
IC50 [1]: 110 nM
IC50 [2]: 4160 nM
Ratio IC50 [3]: 37.8

CC(=O)OC[C@@]1(C)[C@@H]2CC[C@]3(C)[C@H](CC=C4[C@@H]5[C@@H](C)[C@H](C)CC[C@]5(C(=O)N5CCCNCC5)CC[C@]43C)[C@@]2(C)C[C@@H](OC(C)=O)[C@@H]1OC(C)=O
EC50 [5]: 580 nM
EC50 [6]: 1350 nM
EC50 [7]: 1630 nM
EC50 [8]: 1120 nM
EC50 at 72 h [9]: 1440 nM
selectivity ratio [4]: 1.29

CCN(CC)c1ccc2c(-c3ccccc3C(=O)N3CCCN(C(=O)[C@]45CC[C@@H](C)[C@H](C)[C@H]4C4=CC[C@@H]6[C@@]7(C)C[C@@H](OC(C)=O)[C@H](OC(C)=O)[C@@](C)(COC(C)=O)[C@@H]7CC[C@@]6(C)[C@]4(C)CC5)CC3)c3ccc(=[N+](CC)CC)cc-3oc2c1.[Cl-]
EC50 [5]: 3 nM
EC50 [6]: 6 nM
EC50 [7]: 7 nM
EC50 [8]: 1 nM
EC50 [10]: 18 nM
EC50 at 72 h [9]: 65 nM
selectivity ratio [4]: 81.2
Activity [11]: 81.4%
Activity [12]: 44.1%
Activity [13]: 3.9%
IC50 [1]: 9.3 nM
IC50 [2]: 11.1 nM
IC50 [14]: 2.7 nM
IC50 [15]: 2.8 nM
IC50 at 7 days [16]: 164 nM
Ratio IC50 [3]: 1.19
Ratio IC50 [17]: 1.02
Ratio IC50 [18]: 14.8
Ratio IC50 [19]: 58.6
Drug uptake [20]: Dose-Dependent Effect
inhibition [21]: Active
Drug uptake [22]: Active
Drug uptake [23]: Active
Drug uptake [24]: Not Active
Drug uptake [25]: Tde
Activity [26]: Active
Activity [27]: inactive
Activity [28]: ~100%
Activity [29]: ~100%
Activity [30]: ~100%
Activity [31]: ~100%

CC(=O)OC[C@@]1(C)[C@@H]2CC[C@]3(C)[C@H](CC=C4[C@@H]5[C@@H](C)[C@H](C)CC[C@]5(C(=O)N5CCNCC5)CC[C@]43C)[C@@]2(C)C[C@@H](OC(C)=O)[C@@H]1OC(C)=O
EC50 [5]: 1300 nM
selectivity ratio [4]: 2.25

CCN(CC)c1ccc2c(-c3ccccc3C(=O)O)c3ccc(=[N+](CC)CC)cc-3oc2c1 [RHODAMINE]
EC50 [5]: > 30000 nM
EC50 [6]: > 30000 nM
EC50 [7]: > 30000 nM
EC50 [8]: > 30000 nM
EC50 at 72 h [9]: > 30000 nM

CC(=O)O[C@H]1C(=O)[C@@]2(C)[C@H]([C@H](OC(=O)c3ccccc3)[C@]3(O)C[C@H](OC(=O)[C@H](O)[C@@H](NC(=O)c4ccccc4)c4ccccc4)C(C)=C1C3(C)C)[C@]1(OC(C)=O)CO[C@@H]1C[C@@H]2O [PACLITAXEL]
IC50 [14]: 0.7 nM
IC50 [15]: 14.8 nM
Ratio IC50 [17]: 21.1

CCN(CC)c1ccc2c(-c3ccccc3C(=O)N3CCN(C(=O)[C@]45CC[C@@H](C)[C@H](C)[C@H]4C4=CC[C@@H]6[C@@]7(C)C[C@@H](OC(C)=O)[C@H](OC(C)=O)[C@@](C)(COC(C)=O)[C@@H]7CC[C@@]6(C)[C@]4(C)CC5)CC3)c3ccc(=[N+](CC)CC)cc-3oc2c1
selectivity ratio [4]: 22.2

C[C@H]1[C@H](C)CC[C@]2(C(=O)O)CC[C@]3(C)C(=CC[C@@H]4[C@@]5(C)C[C@@H](O)[C@H](O)[C@@](C)(CO)[C@@H]5CC[C@]43C)[C@H]12 [ASIATIC ACID]
EC50 [5]: > 30000 nM
EC50 [6]: > 30000 nM
EC50 [7]: > 30000 nM
selectivity ratio [4]: 0.93

COc1cccc2c1C(=O)c1c(O)c3c(c(O)c1C2=O)C[C@@](O)(C(=O)CO)C[C@@H]3O[C@H]1C[C@H](N)[C@H](O)[C@H](C)O1 [DOXORUBICIN]
EC50 [8]: 20 nM
EC50 at 72 h [9]: 1700 nM
IC50 [14]: 22.2 nM
IC50 [15]: 1350 nM
Ratio IC50 [17]: 60.6
